Publication PMC11459959, “Discovery of new acetamide derivatives of 5-indole-1,3,4-oxadiazol-2-thiol as inhibitors of HIV-1 Tat-mediated viral transcription” (Antimicrobial Agents and Chemotherapy, 2024)
Like-named read-outs stand apart in the source and are kept apart here.

How the values were obtained:
HIV-1 transcripts = assay: RNA-seq of HIV-1 transcripts in infected TZM-bl cells; type: cell-based; settings: HIV-1NL4-3 MOI 1, 1.5 µM, 2 days
Experimental: At 48 h after infection, the total RNA was extracted using the Maxwell RSC simplyRNA Cells Kit (Promega) according to the manufacturer’s instructions. RNA integrity was evaluated as RNA integrity number >6 using the Agilent 2100 Bio-analyzer (Agilent Technologies, Santa Clara, CA, USA). The cDNA libraries were constructed using TruSeq Stranded mRNA Sample Preparation Kit (Illumina, San Diego, CA, USA) according to the manufacturer’s instructions. Subsequently, these cDNA libraries were sequenced on the Illumina sequencing platform (NovaSeq6000; Illumina) and 150 bp paired-end reads were generated. Trimmomatic (v.0.32) was used to eliminate low-quality reads and adapter sequences from the sequencing data ([64]). Subsequently, the filtered reads were aligned to the HIV-1 genome (accession: AF324493.2) using STAR (v.2.3.0) ([65]). RT-qPCR analyses were performed as previously described ([66]) with some minor modifications. […] After infection, the infected cells were treated with 1.5 µM of the compounds. Forty-eight hours after treatment, the viral mRNA was isolated, converted to cDNA, and quantified through RT-qPCR on a 7500 Real-Time PCR System (Applied Biosystems) using the Power SYBR Green PCR Master Mix (Applied Biosystems). The comparative cycle threshold (Ct) method was used to analyze relative changes (Δ) in gene expression. The ΔCt values were determined using a 7500 Real-Time PCR System Software (Applied Biosystems) normalizing with gapdh, and the gene expression was calculated using the ΔΔCt-method. The primers used in this assay are the following: gag forward, 5′-[…]-3′, gag reverse, 5′-[…]-3′; gapdh forward, 5′-[…]-3′, gapdh reverse, 5′-[…]-3′.

[1] = test system: proviral DNA integrated to the host chromosome; assay: Integrated proviral DNA, nested Alu-PCR in A3.01 cells; type: cell-based, HIV-1; settings: compounds 5 µM, 40 h after infection
Experimental: (§1) Fig 5 (A) Time-of-addition assay. […] Subsequently, the cells were treated with the compounds at the indicated time points (0, 1, 2, 4, 6, 8, 10, 12, 24, 30, 36, 42, and 48 h) after HIV-1 infection. The final concentrations of compounds are described in Materials and Methods. Viral activity according to the timing of drug addition was measured as F-Luc activity at 54 h after infection. The relative activities are represented as the mean ± SD (n = 3) compared with the activity observed 54 h post-infection. The relative time frames associated with each HIV-1 infection step are defined based on the time frame of susceptibility to the drug that blocks that particular infection step. […] At 16 h after infection, the viral reverse transcription (RT) product (viral cDNA) level was determined by quantitative real-time PCR (RT-qPCR) using gag and 18S rRNA primer sets and represented as the mean ± SD (n = 3) normalized against the amount of the 18S rRNA compared with the DMSO control. **P < 0.01 compared with the vehicle (DMSO). (C) An in vitro integrase (IN) assay was performed with 10 µM of the indicated compounds following the manufacturer’s protocol. **P < 0.01 compared with vehicle (DMSO). (D) A3.01 cells were infected with HIV-1 upon treatment with the indicated compounds (5 µM) and ARVs (EFV and DTG) as the experimental controls. At 40 h after infection, cellular chromosomal DNA was purified, and the integrated proviral DNA was detected through nested Alu-PCR amplification.
The activity of HIV-1 RT was determined as previously described with some minor modifications ([66][–][68]). In brief, HIV-1NL4-3 obtained from plasmid transfection was treated with DNase I (2.5 U/mL) for 2 h at 37°C to remove the plasmid DNA. […] Sixteen hours after infection, the cell cytosolic DNA was isolated under RNase A treatment, and the RT products (cytosolic viral cDNA) were quantified using RT-qPCR and the following primers: gag forward, 5′-[…]-3′, gag reverse, 5′-[…]-3′; 18S rRNA forward, 5′-[…]-3′, 18S rRNA reverse, 5′-[…]-3′. The relative levels of RT products were analyzed using the ΔΔCt-method, as described above. In vitro integrase activity was determined using an HIV-1 integrase assay kit (XpressBio, Frederick, MD, USA) as previously described ([12]). In brief, a 96-well plate coated with donor substrate DNA was blocked, and HIV-1 integrase was then added to the plate. Subsequently, the compounds and target substrate DNA were added to the plate and incubated for 30 min at 37°C. The plate was washed and subsequently incubated with horse radish peroxidase. Integrase activity was measured by the peroxidase activity with the substrate at an optical density of 450 nm. The experiment was performed in triplicates. Detection of integrated proviral DNA was performed as previously described ([69]) with some minor modifications. […] Chromosomal DNA was purified using the G-Spin DNA extraction kit (Intron Bio Tech, Seongnam-si, Gyeonggi-do, Republic of Korea). The integrated proviral HIV-1 DNA was detected by nested Alu-PCR amplification using the following primers: first round PCR, Alu forward, 5′-[…]-3′, pol reverse, 5′-[…]-3′; second round PCR, gag forward, 5′-[…]-3′, pol reverse. gapdh was used as the control gene.

[2] = test system: HIV-1NL4-3 IRES-eGFP-nef+; assay: eGFP-encoding HIV-1 infection of TZM-bl cells; type: cell-based; settings: 9, 10, 13 1.5 μM, 20, 21, 22 4 μM, seliciclib 10 µM, triptolide 5 nM, DTG 2 nM, EFV 2 nM, 2 days
HIV-1NL4-3 [3] = assay: HIV-1 infectivity in TZM-bl cells (F-Luc); type: cell-based; settings: for EC50: read-out: EC50
Experimental: (§5) The TZM-bl cells (also referred to as JC53BL-13) expressing human CD4, CXCR4, and CCR5 carrying the F-Luc and lacZ genes downstream of the HIV-1 LTR promoter ([60]) were used to determine the inhibitory effect of the compounds on HIV-1 infection, as previously described ([11], [12], [61]). In brief, 1 × 10^4 cells were cultured in 96-well plates for 24 h and subsequently treated with compounds at the indicated concentrations. Without replacement of the culture medium, the cells were subsequently infected with the HIV-1NL4-3 wild-type or ARV-resistant HIV-1 strains at an MOI of 1 to determine the exact inhibitory effect of compounds on a single-round infection. After 48 h, the inhibitory effect of the compounds was determined using a Bright Glo luciferase assay kit (Promega) or β-Galactosidase Enzyme Assay kit (Promega). The infectivity data were presented as a percentage relative to the dimethyl sulfoxide (DMSO) control (vehicle). Cell viability was determined using the resazurin-based PrestoBlue Cell Viability Reagent (Thermo Fisher Scientific, Waltham, MA, USA) following the manufacturer’s instructions.

[4] = test system: INSTI-resistant HIV-1 strain 11849; assay: microbe, parasite or virus in culture; type: cell-based; settings: Human immunodeficiency virus 1, TZM-bl
Experimental: (§2) Fig 7 (A–C) TZM-bl cells (1 × 10^4 cells/well) cultured in a 96-well plate were treated with fivefold serial dilutions of the indicated compound or ARV for 1 h before infection with the HIV-1NL4-3 or ARV-resistant HIV-1 strains at an MOI of 1, respectively. At 48 h after infection, the EC50 values were determined using an F-Luc activity. The symbols represent the fold-change values of EC50 against each mutant virus relative to the wild-type (WT) virus. (D) PBMCs (5 × 10^4 cells/well) were infected with the HIV-1NL4-3 and PIs-resistant HIV-1 strain at an MOI of 0.1, respectively. Subsequently, the PBMCs were treated with 10-fold serial dilutions of the indicated compounds or PI. At 3 days after infection, the EC50 values on the viral replication were determined using a p24 […] assay kit. (E) The inhibitory kinetics for the WT and ARV-resistant viruses. TZM-bl cells infected with WT or ARV-resistant viruses were cultured upon fivefold serial dilutions of each compound for 2 days and the infectivity was determined using an F-Luc activity.
(§3) The Tzm-bl-derived dual Tat reporter; TZM-bl/Tat/Rluc (bl-DTR) cells were established from TZM-bl cells using two Dox-inducible lentiviral expression cassettes cloned with Flag-tagged Tat86 and the R-Luc gene, as described in our previous study ([11]). TZM-bl, A3.01, J1.1, and J-Lat 6.3 cells as well as the HIV-1 molecular clone pNL4-3, pNL(AD8), ARV-resistant HIV-1 strains, and HIV-1NL43-IRES-eGFP (pBR43IeG-nef^+, gifted by Dr. Frank Kirchhoff) ([52]) were provided by the National Institute of Health HIV Reagent Program (NIH, Bethesda, MD, USA). HeLa (CCL-2) and 293T (CRL-3216) cell lines were purchased from the American Type Culture Collection (ATCC, Manassas, VA, USA). The bl-DTR, TZM-bl, HeLa, and 293T cells were cultured in Dulbecco’s modified Eagle’s medium supplemented with 1% penicillin–streptomycin and 10% (vol/vol) heat-inactivated fetal bovine serum (all from Gibco-BRL, Gaithersburg, MD, USA), and 1 µg/mL of puromycin and 200 µg/mL of zeocin were additionally supplemented for the bl-DTR cells. PBMCs were purchased from AllCells (Alameda, CA, USA) and cultured as previously described ([12]). The information on ARV-resistant HIV-1 strains was described in previous reports as follows: NNRTI-resistant 12241 and 12243 ([53]); NRTI-resistant 7396, 7406, and 7407 ([54]); INSTI-resistant 11847 and 11849 ([55], [56]); and PI-resistant 11800 and 11803 ([57]). Each molecular HIV-1 clone was transfected to 293T cells, as previously described ([58]), to obtain infectious HIV-1 particles. Virus-containing cell culture supernatants were collected 3 days after transfection, and filtered through a 0.45-µm membrane filter (Millipore Sigma, Burlington, MA, USA) to remove cell debris. The viral titration was performed as described previously ([59]) with some minor modifications. In brief, 1 × 10^4 TZM-bl cells seeded in 96-well plates were infected with 200 µL of virus-containing medium diluted serially twofold. The incubation was for 2 days and the experiment was performed in triplicate; the infection time minimized the virus spread ([59]). The titration of the infectious viral particles was performed with a ß-Gal staining assay using the ßeta-Galactosidase Staining Kit (Mirus Bio, Madison, WI, USA) following the manufacturer’s protocols. In brief, the infected cells were washed with phosphate-buffered saline (PBS) and fixed using a Cell Fixative Working solution. The cells were washed with PBS and stained using the Cell Staining Working Solution containing X-gal. The infected blue-colored cells were counted under a microscope (100× magnification). The infectious virus titer was determined as a mean value of blue-colored cells count × dilution factor and used for determining the multiplicity of infection (MOI) in each infection experiment.

[5] = test system: INSTI-resistant HIV-1 strain 11847; assay: microbe, parasite or virus in culture; type: cell-based; settings: Human immunodeficiency virus 1, TZM-bl
Experimental: as §2, §3

HIV-1NL4-3 [6] = assay: Time-of-addition assay in TZM-bl cells; type: cell-based; settings: HIV-1NL4-3 MOI 1, 9 and 13 1.5 μM, T-20 1 µM, triptolide 5 nM, ARVs 1 µM, F-Luc at 54 h
Experimental: as §1
A time-of-addition assay was performed as previously described ([25]) with minor modifications. […] Reference drug and test compounds were subsequently added at the indicated time (0, 1, 2, 4, 6, 8, 10, 12, 24, 30, 36, 42, and 48 h after infection). Final concentrations were as follows: compounds 9 and 13 (1.5 μM), T-20 (1 µM), Triptolide (5 nM), and ARVs (AZT, EFV, DTG, RAL) (1 µM). The viral activity according to the timing of drug addition was measured using a Bright Glo luciferase assay kit (Promega). Virus activity curves present a % activity relative to the activity observed at 54 h after infection, and the data are presented as the mean ± standard deviation (SD) (n = 3). The relative time frame associated with each HIV-1 infection step was defined based on the sensitivity to each drug that blocks a particular infection step.

[7] = test system: Tat-mediated LTR transcription; assay: Dual-reporter assay, F-Luc (Tat-mediated LTR transcription) in bl-DTR cells; type: cell-based, HIV-1; settings: bl-DTR cells, doxycycline 50 ng/mL, 24 h; mean ± SD; read-out: IC50 of F-Luc (Tat)
Experimental: (§4) Fig 1 (A) (Top panel) Schematic representation of the primary compound screening using a dual-reporter system. […] (B). […] (Top graphs) bl-DTR cells (1 × 10^4) were treated with twofold serial dilutions of each compound before doxycycline (Dox) addition (final concentration, 50 ng/mL). After 24 h of treatment, the activities of firefly luciferase (F-Luc, red line) and Renilla luciferase (R-Luc, blue line) were determined using the Dual-Glo Luciferase assay system. (Bottom graphs) TZM-bl cells were treated with each indicated compound and subsequently infected with the HIV-1NL4-3 strain at a multiplicity of infection (MOI) of 1. At 48 h after infection, the viral infectivity (purple line) and cell viability (green line) were determined using the Bright-Glo luciferase assay kit and the PrestoBlue Cell Viability Reagent, respectively. […] (C). […] The targeted moieties for the SAR study are marked with dotted-circle lines.
as §3

TZM-bl cells = assay: Cell viability of TZM-bl cells (PrestoBlue); type: cell-based
Experimental: as §5

[8] = test system: general cellular transcription/translation (R-Luc); assay: Dual-reporter assay, R-Luc in bl-DTR cells; type: cell-based; settings: doxycycline, 24 h
Experimental: as §4, §3

[9] = test system: NNRTI-resistant HIV-1 strain 12241; assay: microbe, parasite or virus in culture; type: cell-based; settings: Human immunodeficiency virus 1, TZM-bl
Experimental: as §2, §3

[10] = test system: NNRTI-resistant HIV-1 strain 12243; assay: microbe, parasite or virus in culture; type: cell-based; settings: Human immunodeficiency virus 1, TZM-bl
Experimental: as §2, §3

## Cc1[nH]c2ccc(-c3nnc(S(=O)(=O)C(C)C(=O)N4CCCC4)o3)cc2c1C (centres unmarked) [Compound 21, 2-((5-(2,3-Dimethyl-1H-indol-5-yl)-1,3,4-oxadiazol-2-yl)sulfonyl)-1-(pyrrolidin-1-yl)propan-1-one]
HIV-1 transcripts
  read counts of transcripts mapped to the HIV-1 genome: not observed
[1]
  nested Alu-PCR band for integrated proviral DNA: observed
[2]
  inhibition of viral-expressed eGFP signal: did not

## Cc1nnc(C(=O)NC(C)(C)c2nc(C(=O)NCc3ccc(F)cc3)c(O)c(=O)n2C)o1 [RAL, raltegravir, reference compound]
HIV-1NL4-3 [3]; Human immunodeficiency virus 1, TZM-bl, Table S1, WT virus, TZM-bl
  EC50: < 1 nM
[4]
  EC50: 14.3 ± 2.59 µM
[5]
  EC50: 4.99 ± 0.2 µM
HIV-1NL4-3 [6]
  time of administration after infection at which effectiveness began to decrease / was lost: 10 h

## 5-(2,3-Dimethyl-1H-indol-5-yl)-4-phenethyl-4H-1,2,4-triazole-3-thiol [Compound 29]
HIV-1NL4-3 [3]; TZM-bl cells
  SI (CC50/EC50): 164.33
HIV-1NL4-3 [3]; TZM-bl cells infected with HIV-1NL4-3 at MOI 1, 48 h, F-Luc, mean ± SD
  EC50: 390 ± 30 nM
[7]
  IC50: 430 ± 30 nM
TZM-bl cells; TZM-bl cells, absence of HIV-1 infection, mean ± SD, read-out: CC50
  CC50: 64.1 ± 6.31 µM
[8]
  Relative R-Luc activity at IC50 of F-Luc: 90

## Cc1[nH]c2ccc(-c3nnc(SC(C)C(=O)N4CCCC4)n3CCc3ccccc3)cc2c1C (centres unmarked) [Compound 32, 2-((5-(2,3-Dimethyl-1H-indol-5-yl)-4-phenethyl-4H-1,2,4-triazol-3-yl)thio)-1-(pyrrolidin-1-yl)propan-1-one]
TZM-bl cells; human, 48 h
  CC50: 63.20 ± 2.65 µM
[8]
  Relative R-Luc activity at IC50 of F-Luc: 90

## Cc1ccnc2c1NC(=O)c1cccnc1N2C1CC1 [NVP, nevirapine, reference compound]
HIV-1NL4-3 [3]; Human immunodeficiency virus 1, TZM-bl, 48 h, Table S1, WT virus, TZM-bl, fivefold serial dilutions, MOI 1, 48 h
  EC50: 60 nM
[9]
  EC50: > 100 µM
[10]
  EC50: 23.9 ± 2.3 µM
